From US10770169B2, “Method of providing a treatment to a subject based on a dynamic pathway map” (THE REGENTS OF THE UNIVERSITY OF CALIFORNIA, priority 2010, dated 2020)
Read-outs that look alike come from different tables or passages of the source.

Assays:
[1] = system: luminal, basal, claudin-low and ERBB2AMP breast cancer cell lines; assay: Associations of clinically relevant subtypes and response (non-parametric ANOVA or t-test on GI50 ranks); assay type: cell-based, human; details: Table 6; most sensitive subtype, FDR p<0.20
Source text: A central premise of this study is that associations between responses and molecular subtypes observed in preclinical cell line analyses will be recapitulated in the clinic in instances where the predictive molecular features in the cell lines are mirrored in human tumors. We established response-subtype associations by using non-parametric ANOVAs to compare […] values across transcriptional and genomics subtypes.
Differences between GI50s of the groups were compared with a non-parametric ANOVA or t-test, as appropriate, on the ranks. We combined the p-values for the three sets of tests and used false discovery rate (FDR) to correct for multiple testing. For the three-sample test, we performed a post-hoc analysis on the compounds with a significant class effect by comparing each group to all others to determine which group was most sensitive. The p-values for the post-hoc test were FDR-corrected together. In all cases, FDR p<0.20 was deemed significant. […] Analyses were performed in R.

[2] = system: panel of 55 breast cancer cell lines; assay: Cell growth inhibition assay (Cell Titer Glo, 72 h, 9 doses; GI50, TGI, LC50); assay type: cell-based, human

CCN(CC)CCCCNc1ncc2cc(-c3cc(OC)cc(OC)c3)c(NC(=O)NC(C)(C)C)nc2n1 [PD173074]
Subtype specificity [1]: Claudin-low | GI50 ([2]; Homo sapiens, 600MPE cell line, censored GI50 values, read-out: GI50 (converted)): 9.77 µM | GI50 ([2]; Homo sapiens, AU565, AU565 cell line, censored GI50 values, read-out: GI50 (converted)): 7.41 µM | GI50 ([2]; Homo sapiens, AU565, cell line AU565, read-out: GI50 (converted)): 7.41 µM | GI50 ([2]; Homo sapiens, BT-20, BT20 cell line, censored GI50 values, read-out: GI50 (converted)): 15.8 µM | GI50 ([2]; Homo sapiens, BT-20, cell line BT20, read-out: GI50 (converted)): 15.8 µM | GI50 ([2]; Homo sapiens, BT-474, cell line BT474, read-out: GI50 (converted)): 33.1 µM | GI50 ([2]; Homo sapiens, BT-549, BT549 cell line, censored GI50 values, read-out: GI50 (converted)): 7.41 µM | GI50 ([2]; Homo sapiens, BT-549, cell line BT549, read-out: GI50 (converted)): 7.41 µM | GI50 ([2]; Homo sapiens, HCC38, cell line HCC38, read-out: GI50 (converted)): 2.95 µM | GI50 ([2]; Homo sapiens, HCC70, cell line HCC70, read-out: GI50 (converted)): 7.08 µM | GI50 ([2]; Homo sapiens, HCC202, cell line HCC202, read-out: GI50 (converted)): 8.51 µM | GI50 ([2]; Homo sapiens, HCC1143, HCC1143 cell line, censored GI50 values, read-out: GI50 (converted)): 13.5 µM | GI50 ([2]; Homo sapiens, HCC1143, cell line HCC1143, read-out: GI50 (converted)): 13.5 µM | GI50 ([2]; Homo sapiens, HCC1187, HCC1187 cell line, censored GI50 values, read-out: GI50 (converted)): 10.7 µM | GI50 ([2]; Homo sapiens, HCC1187, cell line HCC1187, read-out: GI50 (converted)): 10.7 µM | GI50 ([2]; Homo sapiens, HCC1395, HCC1395 cell line, censored GI50 values, read-out: GI50 (converted)): 0.617 µM | GI50 ([2]; Homo sapiens, HCC1395, cell line HCC1395, read-out: GI50 (converted)): 0.617 µM | GI50 ([2]; Homo sapiens, HCC1419, HCC1419 cell line, censored GI50 values, read-out: GI50 (converted)): 4.47 µM | GI50 ([2]; Homo sapiens, HCC1419, cell line HCC1419, read-out: GI50 (converted)): 4.47 µM | GI50 ([2]; Homo sapiens, HCC1428, HCC1428 cell line, censored GI50 values, read-out: GI50 (converted)): 6.76 µM | GI50 ([2]; Homo sapiens, HCC1428, cell line HCC1428, read-out: GI50 (converted)): 6.76 µM | GI50 ([2]; Homo sapiens, HCC1500, cell line HCC1500, read-out: GI50 (converted)): 24.5 µM | GI50 ([2]; Homo sapiens, HCC1806, HCC1806 cell line, censored GI50 values, read-out: GI50 (converted)): 5.01 µM | GI50 ([2]; Homo sapiens, HCC1806, cell line HCC1806, read-out: GI50 (converted)): 5.01 µM | GI50 ([2]; Homo sapiens, HCC1937, HCC1937 cell line, censored GI50 values, read-out: GI50 (converted)): 7.59 µM | GI50 ([2]; Homo sapiens, HCC1937, cell line HCC1937, read-out: GI50 (converted)): 7.59 µM | GI50 ([2]; Homo sapiens, HCC1954, HCC1954 cell line, censored GI50 values, read-out: GI50 (converted)): 7.59 µM | GI50 ([2]; Homo sapiens, HCC1954, cell line HCC1954, read-out: GI50 (converted)): 7.59 µM | GI50 ([2]; Homo sapiens, MDA-MB-157, cell line MDAMB157, read-out: GI50 (converted)): 2.34 µM | GI50 ([2]; Homo sapiens, MDA-MB-231, cell line MDAMB231, read-out: GI50 (converted)): 6.76 µM | GI50 ([2]; Homo sapiens, MDA-MB-361, cell line MDAMB361, read-out: GI50 (converted)): 15.1 µM | GI50 ([2]; Homo sapiens, MDA-MB-436, cell line MDAMB436, read-out: GI50 (converted)): 6.46 µM | GI50 ([2]; Homo sapiens, MDA-MB-453, cell line MDAMB453, read-out: GI50 (converted)): 1.95 µM | GI50 ([2]; Homo sapiens, MDA-MB-468, cell line MDAMB468, read-out: GI50 (converted)): 6.61 µM | GI50 ([2]; Homo sapiens, SK-BR-3, cell line SKBR3, read-out: GI50 (converted)): 7.94 µM | GI50 ([2]; Homo sapiens, SUM52PE, cell line SUM52PE, read-out: GI50 (converted)): 0.0229 µM | GI50 ([2]; Homo sapiens, SUM149PT, cell line SUM149PT, read-out: GI50 (converted)): 9.12 µM | GI50 ([2]; Homo sapiens, SUM-159-PT, cell line SUM159PT, read-out: GI50 (converted)): 6.46 µM | GI50 ([2]; Homo sapiens, T47D, cell line T47D, read-out: GI50 (converted)): 13.5 µM | GI50 ([2]; Homo sapiens, UACC-812, cell line UACC812, read-out: GI50 (converted)): 7.08 µM | GI50 ([2]; Homo sapiens, UACC-893, cell line UACC893, read-out: GI50 (converted)): 6.92 µM | GI50 ([2]; Homo sapiens, ZR-75-1, cell line ZR751, read-out: GI50 (converted)): 15.5 µM | GI50 ([2]; Homo sapiens, cell line 600MPE, read-out: GI50 (converted)): 9.77 µM | GI50 ([2]; Homo sapiens, cell line HCC2185, read-out: GI50 (converted)): 29.5 µM | GI50 ([2]; Homo sapiens, cell line HCC3153, read-out: GI50 (converted)): 15.5 µM | GI50 ([2]; Homo sapiens, cell line LY2, read-out: GI50 (converted)): 7.41 µM | GI50 ([2]; Homo sapiens, cell line MDAMB134V, read-out: GI50 (converted)): 18.6 µM | GI50 ([2]; Homo sapiens, cell line SUM1315MO, read-out: GI50 (converted)): 3.39 µM

Cc1cc(C(C)Nc2ccccc2)c2nc(N3CCOCC3)cc(=O)n2c1 (stereo not drawn) [TGX-221]
Subtype specificity [1]: Luminal | GI50 ([2]; 600MPE cell line, censored GI50 values, value is the negative log10 of mol/L): 5.09 | GI50 ([2]; AU565 cell line, censored GI50 values, value is the negative log10 of mol/L): 5.18 | GI50 ([2]; BT20 cell line, censored GI50 values, value is the negative log10 of mol/L): 4.77 | GI50 ([2]; BT474 cell line, censored GI50 values, value is the negative log10 of mol/L): 5.10 | GI50 ([2]; BT483 cell line, censored GI50 values, value is the negative log10 of mol/L): 5.37 | GI50 ([2]; CAMA1 cell line, censored GI50 values, value is the negative log10 of mol/L): 5.10 | GI50 ([2]; HCC38 cell line, censored GI50 values, value is the negative log10 of mol/L): 5.11 | GI50 ([2]; HCC70 cell line, censored GI50 values, value is the negative log10 of mol/L): 5.98 | GI50 ([2]; HCC202 cell line, censored GI50 values, value is the negative log10 of mol/L): 5.20 | GI50 ([2]; HCC1187 cell line, censored GI50 values, value is the negative log10 of mol/L): 5.48 | GI50 ([2]; HCC1395 cell line, censored GI50 values, value is the negative log10 of mol/L): 5.13 | GI50 ([2]; HCC1419 cell line, censored GI50 values, value is the negative log10 of mol/L): 5.16 | GI50 ([2]; HCC1428 cell line, censored GI50 values, value is the negative log10 of mol/L): 4.77 | GI50 ([2]; HCC1954 cell line, censored GI50 values, value is the negative log10 of mol/L): 4.79 | GI50 ([2]; HCC3153 cell line, censored GI50 values, value is the negative log10 of mol/L): 4.38 | GI50 ([2]; LY2 cell line, censored GI50 values, value is the negative log10 of mol/L): 4.78 | GI50 ([2]; MDAMB134VI cell line, censored GI50 values, value is the negative log10 of mol/L): 4.78 | GI50 ([2]; MDAMB231 cell line, censored GI50 values, value is the negative log10 of mol/L): 4.61 | GI50 ([2]; MDAMB361 cell line, censored GI50 values, value is the negative log10 of mol/L): 4.75 | GI50 ([2]; MDAMB436 cell line, censored GI50 values, value is the negative log10 of mol/L): 4.72 | GI50 ([2]; MDAMB453 cell line, censored GI50 values, value is the negative log10 of mol/L): 4.81 | GI50 ([2]; MDAMB468 cell line, censored GI50 values, value is the negative log10 of mol/L): 6.27 | GI50 ([2]; SKBR3 cell line, censored GI50 values, value is the negative log10 of mol/L): 5.33 | GI50 ([2]; SUM159PT cell line, censored GI50 values, value is the negative log10 of mol/L): 4.49 | GI50 ([2]; SUM1315MO2 cell line, censored GI50 values, value is the negative log10 of mol/L): 5.04 | GI50 ([2]; cell line 600MPE, value is the negative log10 of mol/L): 5.09 | GI50 ([2]; cell line AU565, value is the negative log10 of mol/L): 5.18 | GI50 ([2]; cell line BT20, value is the negative log10 of mol/L): 4.77
